The test system of data set [1] is SMN2 minigene mRNA (SMN2-A minigene) in HEK293H cells. Briefly: SMN2 minigene mRNA splicing RT-qPCR assay in cultured cells. The settings on record: Homo sapiens, HEK293-H; concentration increasing full length SMN2 mRNA 1.5-fold relative to vehicle-treated cells; HEK293H cells with SMN2-A minigene, 24 hours, 7-point concentration data; read-out: EC1.5x for production of full length SMN2 mRNA. In kind it is cell-based, human. In outline:
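EC1.5× values derive from a 24 h treatment of SMN2-A minigene HEK293H cells and GAPDH-normalized RT-qPCR of exon 7-included minigene mRNA relative to vehicle-treated cells.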

Data set [2] deals with Smn protein in SMA patient fibroblast cells (GM03813). Briefly: Smn protein assay in cultured cells (SMN HTRF). Format: cell-based, human. The settings on record: SMA patient fibroblast cells, 48 hours; for EC1.5x for Smn protein expression: 7-point concentration curve, SMN HTRF, concentration producing 1.5 times Smn protein vs DMSO vehicle control; for maximum fold (Fold) increase of Smn protein: 7-point concentration data, fold relative to vehicle control. In outline:
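Cells were cultured 72 h, seeded at 5,000/well and dosed with seven concentrations (3.16-fold apart) for 48 h. HTRF on lysates, read at 665 and 620 nm, gave blank-corrected ΔF values relative to DMSO. Potency is reported as EC1.5×, efficacy as maximal fold Smn increase.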
(Time-resolved FRET reads energy transfer from a long-lived donor to a nearby acceptor.)

SMILES strings stand for the structures.

Compound `C[C@H]1CN(c2ccc3nc(-c4ccc(O)c(OC(F)(F)F)c4)cc(=O)n3c2)CCN1` [Compound 84, 2-[4-hydroxy-3-(trifluoromethoxy)phenyl]-7-[(3S)-3-methylpiperazin-1-yl]-4H-pyrido[1,2-a]pyrimidin-4-one] yielded a melting point of 152 to 155 °C. The EC (1.5-fold increase) in data set [1] lay within 1 to 3 µM. Further, in data set [2], the “EC1.5x for Smn protein expression” value is “** (an EC1.5× between >1 μM and ≤3 μM is indicated by two stars (**))”; the “maximum fold (Fold) increase of Smn protein” value (shortened to “maximum fold (Fold) increase”) is reported as “***** (a fold increase >1.65 is indicated by five stars (*****))”.
In the case of `COc1ccc(-c2cc(=O)n3cc(N4CCN[C@H](C)C4)ccc3n2)cc1F` [Compound 86, 2-(3-fluoro-4-methoxyphenyl)-7-[(3R)-3-methylpiperazin-1-yl]-4H-pyrido[1,2-a]pyrimidin-4-one], the melting point is 175 to 178 °C. For the same compound, the EC (1.5-fold increase) in data set [1] lay in the range of 0.1 to 0.3 µM. Moreover, in data set [2], the “EC1.5x for Smn protein expression” value is reported as “**** (an EC1.5x≤0.3 μM is indicated by four stars (****))”; the “maximum fold (Fold) increase” value is “**** (a fold increase between >1.5 and ≤1.65 is indicated by four stars (****))”.
In the case of `COc1ccc(-c2cc(=O)n3cc(N4CCN[C@@H](C)C4)ccc3n2)cc1F` [Compound 87, 2-(3-fluoro-4-methoxyphenyl)-7-[(3S)-3-methylpiperazin-1-yl]-4H-pyrido[1,2-a]pyrimidin-4-one], the melting point fell in the range of 175 to 178 °C. Besides, in data set [1], the EC (1.5-fold increase) is 0.1 to 0.3 µM. Also, in data set [2], the “EC1.5x for Smn protein expression” value was “*** (an EC1.5× between >0.3 μM and ≤1 μM is indicated by three stars (***))”; the “maximum fold (Fold) increase” value was “**** (a fold increase between >1.5 and ≤1.65 is indicated by four stars (****))”.
`COc1ccc(-c2cc(=O)n3cc(N4CCNCC4)ccc3n2)cn1` [Compound 88, 2-(6-methoxypyridin-3-yl)-7-(piperazin-1-yl)-4H-pyrido[1,2-a]pyrimidin-4-one]: the melting point was in the range of 173 to 178 °C. The EC (1.5-fold increase) in data set [1] fell in the range of 1 to 3 µM. Also, the “maximum fold (Fold) increase” value in data set [2] is “** (a fold increase between >1.2 and ≤1.35 is indicated by two stars (**))”.
In turn, `COc1ccc(-c2cc(=O)n3cc(N4CCNCC4)ccc3n2)c(OC)c1` [Compound 89, 2-(2,4-dimethoxyphenyl)-7-(piperazin-1-yl)-4H-pyrido[1,2-a]pyrimidin-4-one] returned a melting point of 171 to 173 °C. The EC (1.5-fold increase) in data set [1] is 1 to 3 µM. The “maximum fold (Fold) increase” value in data set [2] was “*** (a fold increase between >1.35 and ≤1.5 is indicated by three stars (***))”.
`COc1ccc(-c2cc(=O)n3cc(N4CCN[C@@H](C)C4)ccc3n2)c(OC)c1` [Compound 90, 2-(2,4-dimethoxyphenyl)-7-[(3S)-3-methylpiperazin-1-yl]-4H-pyrido[1,2-a]pyrimidin-4-one] registered a melting point of 172 to 177 °C. Besides, the EC (1.5-fold increase) in data set [1] was 1 to 3 µM. Besides, in data set [2], the “EC1.5x for Smn protein expression” value was “* (An EC1.5× for Smn protein expression between >3 μM and ≤10 μM is indicated by one star (*))”; the “maximum fold (Fold) increase” value is “*** (a fold increase between >1.35 and ≤1.5 is indicated by three stars (***))”.
As for `C[C@H]1CN(c2ccc3nc(-c4cncc(F)c4)cc(=O)n3c2)CCN1` [Compound 93, 2-(5-fluoropyridin-3-yl)-7-[(3S)-3-methylpiperazin-1-yl]-4H-pyrido[1,2-a]pyrimidin-4-one], the melting point lay within 191 to 199 °C. The EC (1.5-fold increase) in data set [1] was in the range of 1 to 3 µM. In addition, the “maximum fold (Fold) increase” value in data set [2] was “** (a fold increase between >1.2 and ≤1.35 is indicated by two stars (**))”.
Compound `O=c1cc(-c2cncc(Cl)c2)nc2ccc(N3CCNCC3)cn12` [Compound 94, 2-(5-chloropyridin-3-yl)-7-(piperazin-1-yl)-4H-pyrido[1,2-a]pyrimidin-4-one] gave a melting point of 208 to 218 °C. Also, the EC (1.5-fold increase) in data set [1] lay within 1 to 3 µM. In addition, the “maximum fold (Fold) increase” value in data set [2] is “*** (a fold increase between >1.35 and ≤1.5 is indicated by three stars (***))”.

The melting point is the temperature of the solid-liquid transition.
